Experimental findings from US7985455B2, “Polymerizable liquid crystal compound, liquid crystal composition, and polymer” (JNC Corporation, priority 2007, dated 2011) are described below.

This data set is described as follows: Solubility in PGMEA: deposition of crystals from a PGMEA solution allowed to stand at room temperature over night. The note with it: 30% by weight PGMEA solution, room temperature (20° C.) over night. The data set is classed as physicochemical. The method, then: The compound (1-8) was dissolved in PGMEA to prepare a 20% by weight PGMEA solution.
The compound (1-19) was dissolved in PGMEA to prepare a 20% by weight PGMEA solution.
The compound (1-42) was dissolved in PGMEA to prepare a 30% by weight PGMEA solution.
The compound (1-52) was dissolved in PGMEA to prepare a 30% by weight PGMEA solution.
The compound (M1-3) was dissolved in PGMEA to prepare a 10% by weight PGMEA solution. […] It is understood from the comparison between the result and Example 1 that the compound of the invention having an oxycarbonyloxy bonding group instead of an ether bond is excellent in solubility in PGMEA. Furthermore, it is understood from the comparison between Example 5 and Example 6 that the solubility in PGMEA is further enhanced by introducing an ether structure (—O—) to the alkylene in the side chain.

SMILES strings stand for the structures.

In the case of `C=CC(=O)OCCOCCOC(=O)Oc1ccc(C(=O)Oc2ccc3c(c2)C(C)c2cc(OC(=O)c4ccc(OC(=O)OCCOCCOC(=O)C=C)cc4)ccc2-3)cc1` [Compound 1-42], the “deposition of crystals from PGMEA solution” value is “no deposition of crystals”.
